± gives the expanded uncertainty stated by the source.
Details: 283.15 K, Liquid, Vibrating tube method

CCCCCC(=O)OCC(COC(=O)CCCCC)(COC(=O)CCCCC)COC(=O)CCCCC [pentaerythritol tetrahexanoate]
Details	mass density [kg/m3]
12947 kPa	1011.7 ± 1.2
12961 kPa	1011.5 ± 1.2
12978 kPa	1011.5 ± 1.2
12991 kPa	1011.6 ± 1.2
13005 kPa	1011.6 ± 1.2
13019 kPa	1011.6 ± 1.2
13036 kPa	1011.6 ± 1.2
13050 kPa	1011.7 ± 1.2
13064 kPa	1011.4 ± 1.2
13081 kPa	1011.6 ± 1.2
13095 kPa	1011.5 ± 1.2
13109 kPa	1011.6 ± 1.2
13126 kPa	1011.7 ± 1.2
13139 kPa	1011.7 ± 1.2
13156 kPa	1011.7 ± 1.2
13170 kPa	1011.7 ± 1.2
13185 kPa	1011.7 ± 1.2
13202 kPa	1011.8 ± 1.2
13216 kPa	1011.7 ± 1.2
13233 kPa	1011.7 ± 1.2
13247 kPa	1011.7 ± 1.2
13262 kPa	1011.8 ± 1.2
13276 kPa	1011.9 ± 1.2
13293 kPa	1011.7 ± 1.2
13308 kPa	1011.8 ± 1.2
13322 kPa	1011.7 ± 1.2
13340 kPa	1011.8 ± 1.2
13355 kPa	1011.8 ± 1.2
13372 kPa	1011.8 ± 1.2
13386 kPa	1011.9 ± 1.2
13401 kPa	1011.8 ± 1.2
13419 kPa	1012 ± 1.2
13434 kPa	1011.8 ± 1.2
13448 kPa	1011.8 ± 1.2
13466 kPa	1011.8 ± 1.2
13481 kPa	1012 ± 1.2
13496 kPa	1011.9 ± 1.2
13514 kPa	1011.8 ± 1.2
13529 kPa	1011.9 ± 1.2
13544 kPa	1012 ± 1.2
13559 kPa	1012 ± 1.2
13577 kPa	1011.9 ± 1.2
13592 kPa	1011.9 ± 1.2
13607 kPa	1011.9 ± 1.2
13625 kPa	1011.8 ± 1.2
13640 kPa	1012 ± 1.2
13655 kPa	1012.1 ± 1.2
13669 kPa	1012 ± 1.2
13687 kPa	1012.1 ± 1.2
13702 kPa	1012 ± 1.2
13716 kPa	1011.8 ± 1.2
13735 kPa	1012 ± 1.2
13750 kPa	1011.9 ± 1.2
13765 kPa	1011.9 ± 1.2
13782 kPa	1012.1 ± 1.2
13797 kPa	1012.1 ± 1.2
13810 kPa	1012.1 ± 1.2
13827 kPa	1012.1 ± 1.2
13842 kPa	1011.9 ± 1.2
13855 kPa	1012 ± 1.2
13870 kPa	1012.1 ± 1.2
13883 kPa	1012.1 ± 1.2
13894 kPa	1012.1 ± 1.2
13906 kPa	1012 ± 1.2
13920 kPa	1012.1 ± 1.2
13934 kPa	1012.3 ± 1.2
13949 kPa	1012.2 ± 1.2
13966 kPa	1012.1 ± 1.2
13981 kPa	1012.1 ± 1.2
13996 kPa	1012.2 ± 1.2
14013 kPa	1012.1 ± 1.2
14027 kPa	1012.2 ± 1.2
14042 kPa	1012.1 ± 1.2
14058 kPa	1012.2 ± 1.2
14073 kPa	1012.3 ± 1.2
14087 kPa	1012.2 ± 1.2
14104 kPa	1012.2 ± 1.2
14118 kPa	1012.1 ± 1.2
14133 kPa	1012.2 ± 1.2
14150 kPa	1012.1 ± 1.2
14164 kPa	1012.3 ± 1.2
14179 kPa	1012.3 ± 1.2
14196 kPa	1012.2 ± 1.2
14211 kPa	1012.2 ± 1.2
14225 kPa	1012.2 ± 1.2
14243 kPa	1012.1 ± 1.2
14257 kPa	1012.3 ± 1.2
14272 kPa	1012.3 ± 1.2
14289 kPa	1012.3 ± 1.2
14304 kPa	1012.3 ± 1.2
14320 kPa	1012.4 ± 1.2
14335 kPa	1012.4 ± 1.2
14350 kPa	1012.3 ± 1.2
14368 kPa	1012.2 ± 1.2
14382 kPa	1012.4 ± 1.2
14397 kPa	1012.4 ± 1.2
14415 kPa	1012.6 ± 1.2
14430 kPa	1012.3 ± 1.2
14448 kPa	1012.4 ± 1.2
14463 kPa	1012.3 ± 1.2
14478 kPa	1012.3 ± 1.2
14496 kPa	1012.4 ± 1.2
14511 kPa	1012.4 ± 1.2
14527 kPa	1012.4 ± 1.2
14542 kPa	1012.5 ± 1.2
14560 kPa	1012.4 ± 1.2
14575 kPa	1012.4 ± 1.2
14591 kPa	1012.4 ± 1.2
14609 kPa	1012.6 ± 1.2
14624 kPa	1012.5 ± 1.2
14640 kPa	1012.4 ± 1.2
14658 kPa	1012.5 ± 1.2
14674 kPa	1012.5 ± 1.2
14689 kPa	1012.4 ± 1.2
14708 kPa	1012.4 ± 1.2
14724 kPa	1012.5 ± 1.2
14739 kPa	1012.5 ± 1.2
14755 kPa	1012.5 ± 1.2
14774 kPa	1012.5 ± 1.2
14790 kPa	1012.6 ± 1.2
14805 kPa	1012.6 ± 1.2
14824 kPa	1012.6 ± 1.2
14840 kPa	1012.7 ± 1.2
14856 kPa	1012.7 ± 1.2
14875 kPa	1012.6 ± 1.2
14891 kPa	1012.7 ± 1.2
14907 kPa	1012.7 ± 1.2
14926 kPa	1012.7 ± 1.2
14942 kPa	1012.6 ± 1.2
14959 kPa	1012.8 ± 1.2
14974 kPa	1012.7 ± 1.2
14993 kPa	1012.7 ± 1.2
15008 kPa	1012.6 ± 1.2
15024 kPa	1012.8 ± 1.2
15042 kPa	1012.7 ± 1.2
15058 kPa	1012.8 ± 1.2
15074 kPa	1012.7 ± 1.2
15090 kPa	1012.8 ± 1.2
15108 kPa	1012.8 ± 1.2
15124 kPa	1012.8 ± 1.2
15140 kPa	1012.8 ± 1.2
15159 kPa	1012.7 ± 1.2
15175 kPa	1012.9 ± 1.2
15190 kPa	1012.9 ± 1.2
15209 kPa	1012.8 ± 1.2

Source: the NIST ThermoML archive (doi:10.1021/je060271a)
